Results reported in patent US20240360177A1, “PEPTIDES WITH ANTIMICROBIAL ACTIVITIES” (priority 2021, published 2024).
Converted amounts (≈) assume the structure as drawn. Read-outs that look alike come from different tables or passages of the source. Starred links: 1 amine or outer side, 2 acyl side, 3 side chain; linkers in the order of their positions; H or OH if unused. Non-standard residues stand in square brackets, D forms with d. Residues, ends and D or L forms follow the SMILES beside them. NH(CH2)9CO = O=C(CCCCCCCCCN[*:1])[*:2]; Aoc = NCCCCCCCC(=O)O; βAla = NCCC(=O)O

Legend:
[1] = Acute toxicity in CD-1 mice; settings: both sexes, mouse, in vivo
Description: Acute toxicity and subacute toxicity of ACPs were tested in CD-1 mice. In the acute toxicity study, groups of CD-1 male or female mice were administered single intravenous or intraperitoneal escalating doses (n=2-3 per dose) of the peptides dissolved in normal saline for injection or in phosphate buffered saline. The intravenous dose was administered via tail vein with a slow push over 15-20 seconds. Doses were escalated based on tolerability.

[2] = Subacute toxicity in CD-1 mice; format: in vivo; settings: daily IP for 7 days
Description: In the subacute toxicity study, groups of CD-1 male or female mice were administered seven consecutive daily intraperitoneal doses (n=3 per dose) of the peptides (SEQ ID NO: 7, SEQ ID NO: 29, SEQ ID NO: 53) dissolved in normal saline for injection. Each peptide was evaluated at 2 to 3 dose levels ranging from 2.5 to 7.5 mg/kg/day. Mice were weighed at least once daily and observed at least twice daily for any abnormal findings and determination of overall health. At 24 hrs after the last dose, mice were humanely euthanized, with blood collected through cardiac puncture into K2EDTA microtainers to assess hematological parameters. All three peptides were tolerated at the highest dose evaluated (7.5 mg/kg/day) for 7 days.

Endoproteinase Arg-C = target: T1, Endoproteinase Arg-C (Hathewaya histolytica, UniProt P09870); test: Endoproteinase Arg-C digestion stability; format: in vitro ADME; settings: 37° C.
T1 construct: purchased Sigma Aldrich 11370529001
T1 sequence (P09870 51-181): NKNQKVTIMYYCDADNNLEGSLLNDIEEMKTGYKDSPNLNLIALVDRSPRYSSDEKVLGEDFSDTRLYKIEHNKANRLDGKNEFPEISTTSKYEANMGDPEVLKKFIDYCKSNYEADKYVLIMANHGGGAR
T1 sequence (P09870 191-526): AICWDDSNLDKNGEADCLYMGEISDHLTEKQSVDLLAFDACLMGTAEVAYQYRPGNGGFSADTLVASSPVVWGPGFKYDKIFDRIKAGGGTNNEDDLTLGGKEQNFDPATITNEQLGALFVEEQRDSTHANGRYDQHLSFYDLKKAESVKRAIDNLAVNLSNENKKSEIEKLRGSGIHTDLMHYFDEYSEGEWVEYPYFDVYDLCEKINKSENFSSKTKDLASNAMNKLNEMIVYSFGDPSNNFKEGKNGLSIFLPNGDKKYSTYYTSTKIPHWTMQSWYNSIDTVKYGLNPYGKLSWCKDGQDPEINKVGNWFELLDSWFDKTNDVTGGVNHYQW

[3] = Plasma pharmacokinetics after single IV or IP dose in mice; format: in vivo, CD-1 mice
Description: The in vitro enzymatic and serum stability of the peptides is manifested by the in vivo plasma pharmacokinetic (PK) profile. A single 5 mg/kg intravenous injection (via tail vein) and a single 7.5 mg/kg intraperitoneal dose of SEQ ID NO: 7 were administered to 2 groups of CD-1 mice (n=3 per group). […] Serial blood samples were collected from the saphenous vein into EDTA-K2 as anti-coagulant at time points up to 4 hrs or 8 hrs after the intravenous or intraperitoneal doses. Plasma was separated and analyzed by an LC-MS/MS method as follows. Due to the small blood volume collected from each mouse, the plasma was pooled from 3 mice before analysis. A 50 μL of plasma was protein precipitated with a 100 μL solution of 300 ng/mL TAT peptide ([…]; SEQ ID NO: 99) as the internal standard in 5% trichloroacetic acid. After centrifugation, an aliquot of the supernatant was injected onto an HPLC column (Waters ACQUITY UPLC HSS T3, 2.1*50 mm, 1.8 μm) eluted with a gradient of mobile phase containing 0.1% perfluoropentanoic acid (PFPA) in water and 0.1% PFPA in acetonitrile. The peptide and the internal standard were detected using a Triple Quad 6500+ mass spectrometer operated with electro-spray ionization in the positive-ion SRM mode. The calibration curve range was from 10 to 4000 ng/mL. The mean plasma concentration of SEQ ID NO: 7 after the single intravenous and intraperitoneal doses are depicted in FIG. 2.
C0 or Cmax is concentration at time of injection for IV dose, or maximal concentration after IP dose; tmax is the time when C0 or Cmax was observed; t1/2 is plasma half-life; AUC is area under the plasma concentration vs. time curve; F is absolute bioavailability.

C. albicans = settings: 24 h
C. glabrata = settings: 24 h
C. parapsilosis = settings: 24 h
C. krusei = settings: 24 h
C. auris = settings: 24 h
C. tropicalis = settings: 24 h
C. dubliniensis = settings: 24 h
C. neoformans = settings: 72 h
C. gattii = settings: 72 h
Coccidioides species = settings: N = 3 strains; 48-72 hrs; >50% inhibition
Fusarium spp. = settings: 48 h
Scedosporium spp. = settings: 72 h
Rhizopus arrhizus = settings: 24 h
Paecilomyces variotii = settings: 48 h
in vitro [4] = settings: human, EC50 cytotoxicity in HepG2, intracellular ATP assay
in vitro [5] = settings: human, human serum, full strength
[6] = tested on: Staphylococcus aureus ATCC 29213; format: cell-based
[7] = tested on: Escherichia coli ATCC 25922; format: cell-based
[8] = tested on: Klebsiella pneumoniae ATCC 13883; format: cell-based
[9] = tested on: Pseudomonas aeruginosa ATCC 27853; format: cell-based
[10] = tested on: Salmonella senftenberg CDC 127; format: cell-based
[11] = tested on: Shigella sonnei MMX 10772; test: Antibacterial broth microdilution MIC, Shigella sonnei; format: cell-based; settings: CAMHB
[12] = tested on: Mycobacterium fortuitum ATCC 110; test: Antibacterial broth microdilution MIC, Mycobacterium fortuitum; format: cell-based; settings: 48 hrs
[13] = tested on: Mycobacterium smegmatis ATCC 700084; format: cell-based; settings: ATCC 700084, 48 h
[14] = tested on: Trichophyton rubrum ATCC MYA-4438
[15] = tested on: Epidermophyton floccosum ATCC 52066
[16] = tested on: Microsporum gypseum ATCC 14683
[17] = single IP dose, read-out: Tolerated single intraperitoneal dose
[18] = single IV dose via tail vein, read-out: Tolerated single intravenous dose
[19] = CD-1, mouse, IP 7.5 mg/kg, plasma
[20] = CD-1, mouse, IV 5 mg/kg, plasma

| Structure (SMILES) | MTD [1, 17] [mg/kg] | MTD [1, 18] [mg/kg] | MIC C. albicans (C. albicans) [µg/mL] | MIC C. glabrata (C. glabrata) [µg/mL] | MIC C. parapsilosis (C. parapsilosis) [µg/mL] | MIC C. krusei (C. krusei) [µg/mL] | MIC C. auris (C. auris) [µg/mL] | MIC C. tropicalis (C. tropicalis) [µg/mL] | MIC C. dubliniensis (C. dubliniensis) [µg/mL] | MIC C. neoformans (C. neoformans) [µg/mL] | MIC C. gattii (C. gattii) [µg/mL] | MIC Range Coccidioides species (Coccidioides species) [µg/mL] | MIC Range Fusarium spp. (Fusarium spp.) [µg/mL] | MIC Range Scedosporium spp. (Scedosporium spp.) [µg/mL] | MIC Range Lomentospora prolificans (Lomentospora prolificans) [µg/mL] | MIC Range Rhizopus arrhizus (Rhizopus arrhizus) [µg/mL] | MIC Range Paecilomyces variotii (Paecilomyces variotii) [µg/mL] | EC50 (in vitro [4]) [µg/mL] | further results |
| --- | --- | --- | --- | --- | --- | --- | --- | --- | --- | --- | --- | --- | --- | --- | --- | --- | --- | --- | --- |
| N=C(N)NCCC[C@@H](N)C(=O)N[C@@H](CCCNC(=N)N)C(=O)N[C@H](CCCNC(=N)N)C(=O)NCCC(=O)N[C@H](CCCNC(=N)N)C(=O)N[C@@H](CCCNC(=N)N)C(=O)N[C@H](CCCNC(=N)N)C(=O)NCCC(=O)N[C@H](CCCNC(=N)N)C(=O)N[C@@H](CCCNC(=N)N)C(=O)N[C@H](CCCNC(=N)N)C(=O)N[C@@H](CCCNC(=N)N)C(=O)NCCC(=O)N[C@H](CCCNC(=N)N)C(=O)N[C@@H](CCCNC(=N)N)C(=O)N[C@H](CCCNC(=N)N)C(=O)N[C@@H](CCCNC(=N)N)C(N)=O [SEQ ID NO: 7, rRr-(Apr)-rRr-(Apr)-rRrR-(Apr)-rRrR-NH2] (H-[dR]R[dR][βAla][dR]R[dR][βAla][dR]R[dR]R[βAla][dR]R[dR]R-NH2) | 10 to 15 | 5 to 7.5 | 0.5 (≈ 0.207 µM) | 0.5 (≈ 0.207 µM) | 0.12 (≈ 0.0497 µM) | 0.5 (≈ 0.207 µM) | 1 (≈ 0.414 µM) | 0.25 (≈ 0.103 µM) | 0.25 (≈ 0.103 µM) | 0.25 (≈ 0.103 µM) | 0.25 (≈ 0.103 µM) | 0.25 to 0.5 | 0.12 to 0.5 | ≤0.12 | ≤0.12 | 1 to 8 | 0.25 (≈ 0.103 µM) | > 300 | Tolerated dose (highest dose evaluated) [2]: 7.5 mg/kg/day; Clinical or hematological adverse effects ([2]; up to 7.5 mg/kg/day): No significant clinical or hematological adverse effects were observed; half-life at 427 μg/mL (Endoproteinase Arg-C; Endoproteinase Arg-C (isolated enzyme), read-out: Degradation half-life with Endoproteinase Arg-C (converted)): ~6 h; remaining at 6 h, 427 μg/mL (Endoproteinase Arg-C; Endoproteinase Arg-C, peptide 427 μg/mL, enzyme 3 μg/mL, 6 hrs, read-out: Percent peptide remaining after incubation with Endoproteinase Arg-C): 50.5%; AUC [3, 19]: 4740 ng·h/mL; Cmax [3, 19]: 1750 ng/mL; Tmax [3, 19]: 1 h; half-life [3, 19]: 1.69 h; AUC [3, 20]: 4420 ng·h/mL; C0 [3, 20]: 4480 ng/mL; Tmax [3, 20]: 0 h; half-life [3, 20]: 1.43 h; bioavailability ([3]; CD-1, mouse, plasma, IP 7.5 mg/kg, read-out: F (absolute bioavailability)): 74.8%; Tolerability of the PK doses ([3]; single 5 mg/kg IV and single 7.5 mg/kg IP): well tolerated; MIC50 Candida species (Candida spp.): 0.5 µg/mL (≈ 0.207 µM); MIC90 Candida species (Candida spp.): 1 µg/mL (≈ 0.414 µM); remaining at 2 h, 5 μM (in vitro [5]): ~100% |
| N=C(N)NCCC[C@@H](N)C(=O)N[C@@H](CCCNC(=N)N)C(=O)N[C@H](CCCNC(=N)N)C(=O)NCCCCCCCCCC(=O)N[C@H](CCCNC(=N)N)C(=O)N[C@@H](CCCNC(=N)N)C(=O)N[C@H](CCCNC(=N)N)C(=O)NCCCCCCCC(=O)N[C@H](CCCNC(=N)N)C(=O)N[C@@H](CCCNC(=N)N)C(=O)N[C@H](CCCNC(=N)N)C(=O)N[C@@H](CCCNC(=N)N)C(=O)NCCCCCCCC(=O)N[C@H](CCCNC(=N)N)C(=O)N[C@@H](CCCNC(=N)N)C(=O)N[C@H](CCCNC(=N)N)C(=O)N[C@@H](CCCNC(=N)N)C(=O)O [SEQ ID NO: 32, rRr-(Ada)-rRr-(Aoa)-rRrR-(Aoa)-rRrR] (H-[dR]R[dR][NH(CH2)9CO][dR]R[dR][Aoc][dR]R[dR]R[Aoc][dR]R[dR]R-OH) | 10 to 15 | 5 to 7.5 | 1 (≈ 0.376 µM) | 0.5 (≈ 0.188 µM) | 0.25 (≈ 0.0941 µM) | 0.5 (≈ 0.188 µM) | 4 (≈ 1.51 µM) | 0.5 (≈ 0.188 µM) | 1 (≈ 0.376 µM) | 0.25 (≈ 0.0941 µM) | 0.25 (≈ 0.0941 µM) | 0.25 to 0.5 | 0.25 to 1 | ≤0.12 | 0.25 (≈ 0.0941 µM) | 0.5 to 8 | 0.25 (≈ 0.0941 µM) | > 300 | MIC Staphylococcus aureus [6]: 8 µg/mL (≈ 3.01 µM); MIC Escherichia coli [7]: 2 µg/mL (≈ 0.753 µM); MIC Klebsiella pneumoniae [8]: 4 µg/mL (≈ 1.51 µM); MIC Pseudomonas aeruginosa [9]: 16 µg/mL (≈ 6.02 µM); MIC Salmonella senftenberg [10]: 4 µg/mL (≈ 1.51 µM); MIC Shigella sonnei [11]: 4 µg/mL (≈ 1.51 µM); MIC Mycobacterium fortuitum [12]: 2 µg/mL (≈ 0.753 µM); MIC Mycobacterium smegmatis [13]: 0.5 µg/mL (≈ 0.188 µM); MIC Trichophyton rubrum [14]: 8 µg/mL (≈ 3.01 µM); MIC Epidermophyton floccosum [15]: 4 µg/mL (≈ 1.51 µM); MIC Microsporum gypseum [16]: >64 µg/mL |
